The test system of assay [1] is SKOV3 tumors. Kind of assay: Human ovarian (SKOV3) tumors grown in nude mice: tumor volume and histology. Format: in vivo, mouse. On the procedure:
SKOV3 cells (ATCC) were grown to 70% confluence in Minimum Essential Medium (Life Technologies, Grand Island, N.Y.) supplemented with 10% Fetal Bovine Serum (Wisent, St. Bruno, Quebec) in a humidified atmosphere containing 5% CO2. Cells were then dissociated with 0.02% PBS/EDTA. Total cell count and viable cell number was determined by trypan blue stain and a hemacytometer.
Approximately 1×10^7 cells were resuspended in 400 μl saline and injected in 6-week-old CD-1 nude mice (female, Charles River) subcutaneously. After 20 days of continuous tumor growth, tumor size was about 100 mm^3. The tumor-bearing animals were then injected intraperitoneally every day for 4 consecutive days with 20 mg/kg of the representative peptide modulating agent N—Ac-CHAVC-NH2 (SEQ ID NO:10) and saline, for experimental and control respectively. Mice were sacrificed by cervical dislocation 4 days after final injection.
Tumor tissue was dissected and fixed in PBS with 4% paraformaldehyde for 48 hours. Specimens were then dehydrated in a series of alcohol incubations, and embedded in paraffin wax. Tissues were sectioned, rehydrated and stained with hematoxylin/eosin for morphological purposes. Representative sections obtained from treated and untreated mice are shown in FIGS. 28B and 28A, respectively.
Within similar experiments, tumor-bearing nude mice as described above were injected intraperitoneally with 2 mg/kg of the representative peptide modulating agent N—Ac-CHAVC-NH2 (SEQ ID NO:10) and saline, for experimental and control respectively. Injections were performed every day for 4 days. Mice were sacrificed 24 hours after the last injection. Tumor tissue was fixed, sectioned and stained as described above. Representative sections obtained from treated and untreated mice are shown in FIGS. 30A and 30B, respectively.
In a similar study, the effect of N—Ac-CHAVC-NH2 (SEQ ID NO:10) on ovarian tumor growth was evaluated at 2 mg/kg and 0.2 mg/kg. Mice were treated as described above with saline alone, 2 mg/kg peptide or 0.2 mg/kg peptide once per day for 5 days. The percent change in tumor volume (relative to the tumor size at day 1) was determined.

For assay [2], the system named is MKL-F cells, breast cancer tumors. Kind of assay: Breast cancer tumors grown in nude mice. Format: in vivo, mouse. On the procedure: Breast cancer tumors were also grown in nude mice, as described above. After implanting tumor cells into the mammary fat pad, mice were injected once daily for four days with either the representative modulating agent N—Ac-CHAVC-NH2 (SEQ ID NO:10) or saline as a control. Mice were sacrificed 24 hours after the last injection, and tumors were photographed. […] These tumors are well vascularized.
MKL-F cells were injected into mammary fat pad, as described above, and the tumors were grown for 21 days before injection. Mice were then injected once daily for four days with either 20 mg/kg of the representative modulating agent N—Ac-CHAVC-NH2 (SEQ ID NO:10) or saline as a control. Mice were sacrificed 21 days after the last injection. Tumor volume was measured at day 18 following injection of cells, day 22 (following the first injection of modulating agent), and days 29, 32, 36, 39 and 42.

In assay [3] the test system is Madin Darby canine kidney (MDCK) cells. The format is cell-based. Particulars: 18 h.

This is an account of results in US20040106545A1, “Compounds and methods for modulating cell adhesion” (priority 1996, published 2004).

A word on the EC50: it is the concentration at which the effect is half-maximal. High values mean a need for much substance, low ones an effect from little substance.

`CC(=O)N[C@H]1CSSC[C@@H](C(N)=O)NC(=O)[C@H](C(C)C)NC(=O)[C@H](C)NC(=O)[C@H](Cc2c[nH]cn2)NC1=O` [N—Ac—CHAVC—NH2, N-Ac-Cys-His-Ala-Val-Cys-NH2]: the “change in tumor volume” value in assay [1] (0.2 mg/kg once per day for 5 days) is on record as “grew at a slower rate than tumors treated with saline”; in assay [1] (2 mg/kg once per day for 5 days), “slight reduction in volume over the five day study”. The “effect on tumor blood vessels and tumor growth” value in assay [1] (2 mg/kg intraperitoneally every day for 4 days, Von Willebrand Factor VIII stain) was “capable of damaging tumor blood vessels and stopping tumor growth in vivo”. For the same compound, in assay [1] (20 mg/kg intraperitoneally every day for 4 consecutive days), the “tumor growth / tumor size” value is “prevents detectable tumor growth and results in a substantial decrease in tumor size”. Further, the breast tumor growth entry in assay [2] (once daily for four days) was “slow tumor growth”. Moreover, in assay [2] (once daily for four days (20 mg/kg), 24 hours after last injection), the “appearance of breast tumors (blood vessels)” value is recorded as “extensive rupturing of blood vessels”. This compound also came in with an EC50 in assay [3] of 270 µM.
